{"source": "paper PMC5499580", "about": "(Nucleic Acids Research, 2017)", "key": {"ribosome [1]": {"tested_on": "ribosome", "conditions": "PURExpress, osmC mRNA; 50 μM; worded as known, no reference given; cited from earlier work"}, "[2]": {"tested_on": "peptidyl transferase reaction", "conditions": "polyU-guided in vitro translation system; cited from earlier work"}, "ribosome [3]": {"tested_on": "ribosome", "experiment": "Toe-printing analysis", "assay_type": "biochemical"}, "VatB acetyltransferase": {"tested_on": "VatB acetyltransferase", "conditions": "cited from earlier work"}, "[4]": {"tested_on": "E. coli S30 extract translation system", "assay_type": "biochemical", "conditions": "5 μM, luciferase mRNA, 37°C, 30 min"}, "ribosome [5]": {"tested_on": "ribosome", "conditions": "compared with MADU on osmC mRNA; cited from earlier work"}, "23S rRNA mutation A2503G": {"tested_on": "23S rRNA mutation A2503G", "conditions": "cited from earlier work"}}}
{"smiles": "C=C(NC(=O)C(=C)NC(=O)c1csc(C2=N[C@@H]3c4csc(n4)[C@H]4NC(=O)c5csc(n5)[C@H]([C@](C)(O)[C@@H](C)O)NC(=O)[C@H]5CSC(=N5)/C(=C/C)NC(=O)[C@H]([C@@H](C)O)NC(=O)c5csc(n5)[C@]3(CC2)NC(=O)[C@H](C)NC(=O)C(=C)NC(=O)[C@H](C)NC(=O)[C@H]([C@@H](C)CC)N[C@@H]2C=Cc3c([C@H](C)O)cc(nc3[C@H]2O)C(=O)O[C@@H]4C)n1)C(N)=O", "note": "[Thiostrepton, thiostrepton]", "values": [{"measurement": "Ribosome stalling by positive control (first codon)", "setting": "ribosome [1]", "value": "stall ribosomes at the first codon"}]}
{"smiles": "CC1=C\\[C@@H](O)CC(=O)Cc2nc(co2)C(=O)N2CCC=C2C(=O)O[C@H](C(C)C)[C@H](C)/C=C/C(=O)NC\\C=C\\1", "note": "[virginiamycin M]", "values": [{"measurement": "Effect on peptidyl transferase reaction", "setting": "[2]", "value": "specifically inhibits the peptidyl transferase reaction"}]}
{"smiles": "CC1=C\\[C@@H](O)C[C@@H](O)Cc2nc(co2)C(=O)N[C@H](C)C(=O)O[C@H](C(C)C)[C@H](C)/C=C/C(=O)NC\\C=C\\1", "note": "[MADU, madumycin II]", "values": [{"measurement": "Ribosome stalling on osmC mRNA", "setting": "ribosome [3]; PURExpress cell-free system, osmC mRNA, 0.5, 5 and 50 μM MADU", "value": "dose-dependent ribosome stalling at the start codon"}, {"measurement": "Progression to second codon, Gly vs Ile second codon", "setting": "ribosome [3]; PURExpress, 5 µM MADU, mutated osmC mRNAs", "value": "noticeably more ribosomes progressing to the second codon in the case of glycine as compared with the isoleucine"}, {"measurement": "Effect of VatB acetylation of C12-hydroxyl on activity", "setting": "VatB acetyltransferase", "value": "renders the drug inactive"}, {"measurement": "Reduction of the efficiency of protein synthesis", "setting": "[4]", "value": "> 100", "unit": "fold"}]}
{"smiles": "CC1=C\\[C@@H](O)CC(=O)Cc2nc(co2)C(=O)N2CCC[C@@H]2C(=O)O[C@H](C(C)C)[C@H](C)/C=C/C(=O)NC\\C=C\\1", "note": "[pristinamycin IIB]", "values": [{"measurement": "Ribosome stalling in toe-printing", "setting": "ribosome [5]", "value": "ribosome stalling at the start codon"}]}
{"smiles": "O=C(N[C@H](CO)[C@H](O)c1ccc([N+](=O)[O-])cc1)C(Cl)Cl", "note": "[chloramphenicol]", "values": [{"measurement": "Resistance conferred by A2503G", "setting": "23S rRNA mutation A2503G", "value": "confers resistance"}]}
